These results are taken from article PMC7796187, “New Bioactive Peptides Identified from a Tilapia Byproduct Hydrolysate Exerting Effects on DPP-IV Activity and Intestinal Hormones Regulation after Canine Gastrointestinal Simulated Digestion” (Molecules, 2020).

Where a SMILES comes first, the peptide text is derived from it. Where no end group is shown, it is not given here. A value given as a limit tells only on which side of the number the result lay.

One assay relates to STC-1 cells. In words: Active GLP-1 secretion in STC-1 cells, radioimmunoassay of supernatant. The conditions noted are these: 1 mM, 2 h, versus buffer control. In kind it is cell-based. The procedure:
The Caco-2 cell line was purchased from Sigma-Aldrich (Villefranche-sur-Saône, France) and the STC-1 cell line was a grateful gift received from Corinne Grangette (Univ. Lille, CNRS, Inserm, CHU Lille, Institut Pasteur de Lille, U1019-UMR 8204-CIIL, France). Cells were grown in flask of 75 cm^2 at 37 °C, 5% CO2 atmosphere in DMEM supplemented with 4.5 g L^−1 of glucose, 10% of fetal bovine serum, 100 U mL^−1 of penicillin, 100 µg mL^−1 of streptomycin and 2 mM of L-glutamine. Caco-2 and STC-1 cells were weekly and twice a week subcultured, respectively. All cells used in this study were between the 40 and the 50 passages for Caco-2 cells and between the 10 and 30 passages for STC-1 cells.
When 80–90% confluence was reached, STC-1 cells were trypsinized and seeded at a density of 40,000 cells/well in 24-wells culture plates (ThermoFisher Scientific, Saint Aubin, France) allowing to reach 60–80% confluence. Cell culture medium was removed from each well and cells were washed with phosphate saline buffer (PBS, 10 mM, pH 7.4). 250 µL of digests (2 to 10 mg mL^−1) or synthetic peptides (1 mM) diluted in Hepes buffer (4.5 mM KCl, 1.2 mM CaCl2, 140 mM NaCl and 20 mM Hepes, pH 7.4) were then added. Hepes buffer was used as a negative control. […]
In the case of ELLK, the “active GLP-1 release stimulation by synthetic peptide” value is given as “did not lead to GLP-1 secretion”. In the case of LKPT, the “active GLP-1 release stimulation by synthetic peptide” value is “able to significantly stimulate active-GLP-1 release”.

The target in a further assay is T1, Caco-2 DPP-IV activity (Homo sapiens, UniProt P27487).
T1 construct: In situ method using confluent Caco-2 cells described by Caron et al. was slightly modified and used to study DPP-IV activity; host or cells: Caco-2 cells, live and confluent, 7 days after seeding
T1 sequence (P27487 whole entry): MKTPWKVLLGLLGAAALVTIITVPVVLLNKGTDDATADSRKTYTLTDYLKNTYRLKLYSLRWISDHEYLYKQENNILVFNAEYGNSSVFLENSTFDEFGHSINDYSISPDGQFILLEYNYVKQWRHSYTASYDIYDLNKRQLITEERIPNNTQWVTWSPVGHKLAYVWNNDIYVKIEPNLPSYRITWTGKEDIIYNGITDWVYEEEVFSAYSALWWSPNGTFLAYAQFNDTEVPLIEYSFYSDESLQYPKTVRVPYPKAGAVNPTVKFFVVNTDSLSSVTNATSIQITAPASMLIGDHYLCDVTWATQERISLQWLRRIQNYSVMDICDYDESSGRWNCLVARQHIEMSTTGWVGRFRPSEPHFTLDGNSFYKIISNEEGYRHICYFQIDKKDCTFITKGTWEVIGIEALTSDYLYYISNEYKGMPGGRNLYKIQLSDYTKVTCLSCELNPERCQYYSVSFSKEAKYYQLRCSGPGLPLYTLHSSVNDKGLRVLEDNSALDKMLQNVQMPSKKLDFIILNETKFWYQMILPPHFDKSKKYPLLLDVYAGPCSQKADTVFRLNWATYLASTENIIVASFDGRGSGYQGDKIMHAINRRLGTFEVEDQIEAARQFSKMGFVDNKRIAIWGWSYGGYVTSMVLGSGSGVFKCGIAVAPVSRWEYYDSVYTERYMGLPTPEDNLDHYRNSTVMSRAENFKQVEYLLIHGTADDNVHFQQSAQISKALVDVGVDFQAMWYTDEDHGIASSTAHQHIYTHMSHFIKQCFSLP
Briefly: In situ DPP-IV activity inhibition using live confluent Caco-2 cells (Gly-Pro-AMC substrate). The format is cell-based. Particulars: synthetic peptides identified in basolateral side, read-out: In Situ IC50 (DPP-IV inhibitory activity). The procedure:
Cells were grown in flask of 75 cm^2 at 37 °C, 5% CO2 atmosphere in DMEM supplemented with 4.5 g L^−1 of glucose, 10% of fetal bovine serum, 100 U mL^−1 of penicillin, 100 µg mL^−1 of streptomycin and 2 mM of L-glutamine. Caco-2 and STC-1 cells were weekly and twice a week subcultured, respectively. All cells used in this study were between the 40 and the 50 passages for Caco-2 cells and between the 10 and 30 passages for STC-1 cells.
In situ method using confluent Caco-2 cells described by Caron et al. was slightly modified and used to study DPP-IV activity. A 1 mM (Gly-Pro-AMC) substrate solution, the digests and the synthetic peptides dilutions were prepared in phosphate saline buffer pH 7.4 (PBS). Briefly, after 7 days of growth, Caco-2 cells were trypsinized and seeded at a density of 8000 cells/well in 96-well optical black plates (Nunc, ThermoFisher Scientific, Rochester, NY, USA). After 7 days, culture media were removed from wells and the cells were washed with 100 µL of PBS buffer (pH 7.4). […] After 5 min of incubation at 37 °C, 50 µL of (Gly-Pro-AMC) substrate solution were added to each well. Fluorescence was recorded every 2 min for 1 h at 37 °C using a Xenius XC spectrofluorometer (Safas Monaco, Monaco). Excitation wavelength was set to […] while the emission wavelength was of 480 nm. The percentage of the DPP-IV activity inhibition was defined as the percentage of DPP-IV activity inhibited by a given concentration of digest or diprotin A (commercial DPP-IV peptide inhibitor) as positive control compared with control buffer response. […] IC50 was expressed in mg mL^−1 or in mM.
As to `CC(C)C[C@H](NC(=O)[C@@H]1CCCN1C(=O)[C@@H](N)CC(=O)O)C(=O)N[C@H](C(=O)O)C(C)C` [DPLV] (H-DPLV-OH), the IC50 was above 2500 µM. As for `C[C@@H](O)[C@H](NC(=O)[C@H](CC(=O)O)NC(=O)[C@@H](N)CCC(=O)O)C(=O)N[C@@H](Cc1ccc(O)cc1)C(=O)O` [EDTY] (H-EDTY-OH; N-terminus and C-terminus assumed), the IC50 was above 2500 µM.

Take `C[C@@H](O)[C@H](NC(=O)[C@H](Cc1ccc(O)cc1)NC(=O)[C@H](CC(=O)O)NC(=O)[C@@H](N)CCC(=O)O)C(=O)O` [EDYT] (H-EDYT-OH; N-terminus and C-terminus assumed): the IC50 is above 2500 µM.

Consider `CC(C)C[C@H](NC(=O)[C@H](CC(=O)O)NC(=O)[C@@H]1CCCN1)C(=O)N[C@H](C(=O)O)C(C)C` [PDLV] (H-PDLV-OH), for which the IC50 was above 2500 µM.

Take CSSGGY [CSSGGY]: the IC50 is 2160 µM. Consider CSSGK [CSSGK], for which the IC50 is above 2500 µM. Take VAPEEHPT: the IC50 was determined as 2270 µM. On to VDAGAP [VDAGAP], for which the IC50 is above 2500 µM.

The next assay concerns DPP-IV. Briefly: In vitro (biochemical) DPP-IV inhibitory activity test. The conditions noted are these: synthetic peptides identified in basolateral side.
Compound `C[C@@H](O)[C@H](NC(=O)[C@H](CC(=O)O)NC(=O)[C@@H](N)CCC(=O)O)C(=O)N[C@@H](Cc1ccc(O)cc1)C(=O)O` [EDTY] (H-EDTY-OH; N-terminus and C-terminus assumed) returned an IC50 above 2500 µM.

Regarding `C[C@@H](O)[C@H](NC(=O)[C@H](Cc1ccc(O)cc1)NC(=O)[C@H](CC(=O)O)NC(=O)[C@@H](N)CCC(=O)O)C(=O)O` [EDYT] (H-EDYT-OH; N-terminus and C-terminus assumed), the IC50 was above 2500 µM.

In turn, VADTMEVV returned an IC50 of 603 µM.

The subject of a further assay is STC-1 cells.
Experiment: not given
The arrangement: method as in PMID 32516710. Particulars: peptides from egg white SGID intestinal digest; cited from earlier work.
On to VLLPD, for which the CCK secretion stimulation entry is recorded as “able to stimulate CCK secretion in STC-1 cells”. On to “VLLPDEVSGL [peptide from egg white SGID intestinal digest]”, for which the CCK secretion stimulation result is listed as “able to stimulate CCK secretion in STC-1 cells”.

In a further assay the test system is EECs.
Experiment: not given
More on the design: method as in PMID 28460928, doi:10.1016/j.jff.2017.06.047. Particulars: hemorphins from bovine hemoglobin digestion; cited from earlier work.
On to “LLVVYPWT [hemorphin released during bovine hemoglobin digestion]”, for which the CCK secretion stimulation result was “CCK and GLP-1 secretion stimulating peptides”. Take “LVVYPWT [hemorphin released during bovine hemoglobin digestion]”: the CCK secretion stimulation result was “CCK and GLP-1 secretion stimulating peptides”. Consider VVYPWT, for which the CCK secretion stimulation result is “CCK and GLP-1 secretion stimulating peptides”. “VVYPWTQRF [hemorphin released during bovine hemoglobin digestion]”: the CCK secretion stimulation result was “CCK and GLP-1 secretion stimulating peptides”.

In another assay the test system is EECs.
Experiment: not given
Particulars: cited from earlier work.
On to AAAA, for which the GLP-1 secretion stimulation entry is on record as “able to stimulate GLP-1 secretion”. In the case of GGGG, the GLP-1 secretion stimulation entry is on record as “able to stimulate GLP-1 secretion”.

Consider “GPVRGPFPIIV [literature GLP-1 stimulating peptide]”, for which the GLP-1 secretion stimulation entry is on record as “able to stimulate GLP-1 secretion”.

As for GWGG, the GLP-1 secretion stimulation result is “able to stimulate GLP-1 secretion”. As to LGG, the GLP-1 secretion stimulation result is on record as “able to stimulate GLP-1 secretion”.

The same assay, now with this note: egg white protein digest peptides; cited from earlier work.
As to PFL, the GLP-1 secretion stimulation result is given as “able to stimulate GLP-1 secretion”.

With “RVASMASEKM [peptide from egg white protein digest]”, the GLP-1 secretion stimulation entry is “GLP-1 secretagogue”.

The assay is the same for the next values; noted with them: hemorphins from bovine hemoglobin digestion; cited from earlier work.
In the case of “LLVVYPWT [hemorphin released during bovine hemoglobin digestion]”, the GLP-1 secretion stimulation result is “CCK and GLP-1 secretion stimulating peptides”. As to “LVVYPWT [hemorphin released during bovine hemoglobin digestion]”, the GLP-1 secretion stimulation result is “CCK and GLP-1 secretion stimulating peptides”. In the case of VVYPWT, the GLP-1 secretion stimulation result was “CCK and GLP-1 secretion stimulating peptides”. For the compound “VVYPWTQRF [hemorphin released during bovine hemoglobin digestion]”, the GLP-1 secretion stimulation result is “CCK and GLP-1 secretion stimulating peptides”.

Still in this assay, the particulars now being: sequences from bovine hemoglobin intestinal digest; cited from earlier work.
As to ANVST, the GLP-1 secretion stimulation entry is reported as “able to stimulate the secretion of GLP-1”. Turning to KAAVT, the GLP-1 secretion stimulation entry is given as “able to stimulate the secretion of GLP-1”. As for TKAVEH, the GLP-1 secretion stimulation entry is on record as “able to stimulate the secretion of GLP-1”. On to YGAE, for which the GLP-1 secretion stimulation result is “able to stimulate the secretion of GLP-1”.

The test system of a further assay is murine GLUTag cells.
Experiment: not given
More on the design: method as in earlier work. Particulars: α-actinin-2 sequences; cited from earlier work.
On to ASDKPYIL [α-actinin-2 derived peptide], for which the GLP-1 secretion stimulation result was “also active”. For the compound KPYIL, the GLP-1 secretion stimulation entry was “able to stimulate the GLP-1 secretion in murine GLUTag cells”.
